Results from patent US20100081718A1, “CO[…]-2-DELTA LIGANDS” (Pfizer Inc, priority 2003, published 2010).
Counter-ions that a name gives are not always drawn.

Tests used:
[1] = Plasma concentration (Cmax) of gabapentin in the rat

Question: With `CCC[C@@H](C)C[C@H](N)CC(=O)O.Cl` as the compound, how does the melting point read?
Answer: 142.5 to 142.7 °C

Question: With `CCCC[C@@H](C)C[C@H](N)CC(=O)O` (as salt: hydrochloride) as the compound, how does the melting point read?
Answer: 142.5 to 143.3 °C

Question: With `NCC1(CC(=O)O)CCCCC1` [gabapentin, 1-(aminomethyl)-cyclohexylacetic acid] as the compound, how does the Cmax [1] read?
Answer: 520 to 10500 ng/mL
